According to patent US20230113037A1 (Bayer Aktiengesellschaft, priority 2019, published 2023):
Read-outs that look alike come from different tables or passages of the source.

Legend:
[1] = molecular target: T1, AHR (Mus musculus, UniProt P30561); assay: In vitro assay 3: antagonism in mouse cell line (AHR transactivation, firefly luciferase reporter, kynurenic acid prestimulated); assay type: cell-based; settings: 200 μM kynurenic acid, 20 hours, read-out: AHR Antagonism Mouse IC50
T1 sequence (P30561 1-848 P471L/N533S/M589L): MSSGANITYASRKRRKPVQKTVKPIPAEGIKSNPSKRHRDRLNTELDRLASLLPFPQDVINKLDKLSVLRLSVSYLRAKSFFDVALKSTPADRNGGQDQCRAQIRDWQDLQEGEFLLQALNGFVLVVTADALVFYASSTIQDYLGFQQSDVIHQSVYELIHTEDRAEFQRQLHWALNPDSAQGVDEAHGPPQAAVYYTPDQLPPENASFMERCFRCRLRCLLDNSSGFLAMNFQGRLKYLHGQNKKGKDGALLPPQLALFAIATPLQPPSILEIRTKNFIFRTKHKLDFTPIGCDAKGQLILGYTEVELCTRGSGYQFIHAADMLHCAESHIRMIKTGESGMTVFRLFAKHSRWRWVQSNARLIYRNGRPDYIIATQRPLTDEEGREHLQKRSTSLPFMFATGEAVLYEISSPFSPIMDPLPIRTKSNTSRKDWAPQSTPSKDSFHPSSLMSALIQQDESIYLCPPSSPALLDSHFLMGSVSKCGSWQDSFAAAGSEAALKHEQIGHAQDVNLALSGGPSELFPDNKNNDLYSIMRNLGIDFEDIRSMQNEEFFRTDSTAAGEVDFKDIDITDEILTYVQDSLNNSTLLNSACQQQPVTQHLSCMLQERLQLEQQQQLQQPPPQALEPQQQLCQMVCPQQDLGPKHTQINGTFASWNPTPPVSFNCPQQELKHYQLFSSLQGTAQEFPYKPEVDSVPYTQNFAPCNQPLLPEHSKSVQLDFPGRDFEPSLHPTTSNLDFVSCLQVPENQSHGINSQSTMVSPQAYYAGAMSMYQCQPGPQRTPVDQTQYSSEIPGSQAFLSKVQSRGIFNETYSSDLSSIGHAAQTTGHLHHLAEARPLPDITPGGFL
Procedure, shortened: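 Cells were first stimulated with kynurenic acid, then exposed to test compound, after which firefly luciferase from a DRE-containing AHR reporter was read out. Signal was scaled between positive and negative controls. Cells not given kynurenic acid provided the inhibition reference.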

[2] = molecular target: T2, AHR (Homo sapiens, UniProt P35869); assay: In vitro assay 1: antagonism in human cell line (AHR transactivation, firefly luciferase reporter, kynurenic acid prestimulated); assay type: cell-based; settings: AHR Antagonism Human IC50 [M]
T2 construct: U87 MG glioblastoma cells (ATCC #HTB-14) endogenously expressing AHR; endogenous in cells; host or cells: U87 MG glioblastoma cells (ATCC #HTB-14)
T2 sequence (P35869 11-848): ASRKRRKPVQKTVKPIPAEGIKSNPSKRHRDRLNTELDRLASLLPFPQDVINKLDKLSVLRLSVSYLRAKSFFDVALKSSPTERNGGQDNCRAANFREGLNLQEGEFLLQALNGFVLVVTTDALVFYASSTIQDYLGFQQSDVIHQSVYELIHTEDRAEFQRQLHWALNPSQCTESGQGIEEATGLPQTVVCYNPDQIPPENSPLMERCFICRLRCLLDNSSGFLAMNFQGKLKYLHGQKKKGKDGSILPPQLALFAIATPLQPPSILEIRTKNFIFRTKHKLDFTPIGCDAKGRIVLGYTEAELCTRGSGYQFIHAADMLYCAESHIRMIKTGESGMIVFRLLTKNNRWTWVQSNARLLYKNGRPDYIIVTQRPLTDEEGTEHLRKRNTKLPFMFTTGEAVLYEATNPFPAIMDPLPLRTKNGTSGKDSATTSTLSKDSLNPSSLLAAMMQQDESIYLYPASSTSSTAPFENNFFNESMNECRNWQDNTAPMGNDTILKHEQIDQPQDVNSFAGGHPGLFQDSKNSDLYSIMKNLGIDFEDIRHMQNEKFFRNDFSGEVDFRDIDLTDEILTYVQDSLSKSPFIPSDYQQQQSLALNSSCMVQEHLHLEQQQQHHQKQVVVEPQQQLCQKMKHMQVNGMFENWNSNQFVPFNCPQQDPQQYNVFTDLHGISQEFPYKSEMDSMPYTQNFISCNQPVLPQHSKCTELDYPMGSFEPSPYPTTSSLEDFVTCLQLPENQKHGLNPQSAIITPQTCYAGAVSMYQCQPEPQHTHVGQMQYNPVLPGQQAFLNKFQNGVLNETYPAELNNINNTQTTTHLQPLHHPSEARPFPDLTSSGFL
Procedure, shortened: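 U87 MG glioblastoma cells with endogenous AHR, stably carrying a DRE-driven firefly luciferase reporter and constitutive Renilla reporter, prestimulated with kynurenic acid before compound addition. Firefly and Renilla read by dual luciferase; Renilla flags toxicity; normalized to controls (150 μM kynurenic acid + 5 μM staurosporine as full inhibition); repeat values averaged or median.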

[3] = Hepa 1c1c7 cells, firefly luciferase reporter

| Compound | IC50 [1, 3] [nM] | IC50 ([2]; firefly luciferase reporter) [M] | IC50 ([1]; mouse Hepa 1c1c7 cells) [nM] | IC50 [2] [M] |
| --- | --- | --- | --- | --- |
| C[C@@H](Nc1nc2c(Br)cccc2c2nc(-c3cnn(C)c3)nn12)C(=O)N1CC2(CN(C(=O)OC(C)(C)C)C2)C1 [Example 921, tert-butyl 6-{N-[7-bromo-2-(1-methyl-1H-pyrazol-4-yl)[1,2,4]triazolo[1,5-c]quinazolin-5-yl]-D-alanyl}-2,6-diazaspiro[3.3]heptane-2-carboxylate] | 98.3 | 4.24e-08 | – | – |
| COc1ccc(-c2nc3c4c(OC)cccc4nc(N[C@@H]4CNCCNC4=O)n3n2)cc1 [Example 291, (6R)-6-{[10-methoxy-2-(4-methoxyphenyl)[1,2,4]triazolo[1,5-c]quinazolin-5-yl]amino}-1,4-diazepan-5-one] | – | – | 2680 | 2.65e-06 |
| COc1cccc(-c2nc3c4ccccc4nc(N[C@@H](Cc4ccc(O)cc4)C(N)=O)n3n2)c1 [Example 84, N^2-[2-(3-methoxyphenyl)[1,2,4]triazolo[1,5-c]quinazolin-5-yl]-L-tyrosinamide] | – | – | 1380 | 1.01e-06 |
| Cn1cc(-c2nc3c4cccc(C(F)(F)F)c4nc(N[C@@H]4CCCNC4=O)n3n2)cn1 [Example 585, (3R)-3-{[2-(1-methyl-1H-pyrazol-4-yl)-7-(trifluoromethyl)[1,2,4]triazolo[1,5-c]quinazolin-5-yl]amino}piperidin-2-one] | – | – | 830 | 6.91e-08 |
| COc1ccc(-c2nc3c4cccc(Br)c4nc(N[C@H](C)C(=O)N4CCO[C@H](C)C4)n3n2)cc1 [Example 907, (2R)-2-{[7-bromo-2-(4-methoxyphenyl)[1,2,4]triazolo[1,5-c]quinazolin-5-yl]amino}-1-[(2R)-2-methylmorpholin-4-yl]propan-1-one] | 1.39 | 9.93e-10 | – | – |
| COc1ccc(-c2nc3c4cccc(CSC)c4nc(N[C@@H]4CCCCNC4=O)n3n2)cc1 [Example 863, (3R)-3-({2-(4-methoxyphenyl)-7-[(methylsulfanyl)methyl][1,2,4]triazolo[1,5-c]quinazolin-5-yl}amino)azepan-2-one] | 12.9 | 2.98e-09 | – | – |
| Cn1cc(-c2nc3c4cccc(C#N)c4nc(N[C@@H]4CCCCNC4=O)n3n2)cn1 [Example 403, 2-(1-Methyl-1H-pyrazol-4-yl)-5-{[(3R)-2-oxoazepan-3-yl]amino}[1,2,4]triazolo[1,5-c]quinazoline-7-carbonitrile] | – | – | 95.1 | 3.03e-08 |
| CCC[C@@H](Nc1nc2ccccc2c2nc(-c3cc(Cl)ccc3OC(F)(F)F)nn12)C(=O)NC [Example 501, N^2-{2-[5-chloro-2-(trifluoromethoxy)phenyl][1,2,4]triazolo[1,5-c]quinazolin-5-yl}-N-methyl-D-norvalinamide] | – | – | 90.8 | > 2e-05 |

Continued by falling IC50 ([1]; mouse Hepa 1c1c7 cells), values first:

| IC50 [1, 3] [nM] | IC50 ([2]; firefly luciferase reporter) [M] | IC50 ([1]; mouse Hepa 1c1c7 cells) [nM] | IC50 [2] [M] | Compound |
| --- | --- | --- | --- | --- |
| – | – | 50.7 | > 2e-05 | O=C1NCCCC[C@H]1Nc1nc2ccccc2c2nc(-c3cc(Br)ccc3OC(F)(F)F)nn12 [Example 505, (3R)-3-({2-[5-bromo-2-(trifluoromethoxy)phenyl][1,2,4]triazolo[1,5-c]quinazolin-5-yl}amino)azepan-2-one] |
| – | – | 18.5 | 2.1e-07 | CCCCNC(=O)[C@H](C)Nc1nc2c(Br)cccc2c2nc(-c3ccc(Cl)cc3OC(F)F)nn12 [Example 686, N^2-{7-bromo-2-[4-chloro-2-(difluoromethoxy)phenyl][1,2,4]triazolo[1,5-c]quinazolin-5-yl}-N-butyl-L-alaninamide] |
| – | – | 9.2 | 7.1e-09 | Cn1ccc(-c2nc3c4cccc(C(F)(F)F)c4nc(N[C@@H]4CCCCNC4=O)n3n2)n1 [Example 735, (3R)-3-{[2-(1-methyl-1H-pyrazol-3-yl)-7-(trifluoromethyl)[1,2,4]triazolo[1,5-c]quinazolin-5-yl]amino}azepan-2-one] |
| – | – | 6.47 | 1.85e-08 | CC(C)Oc1ccc(-c2nc3c4ccccc4nc(N[C@@H]4CNCCNC4=O)n3n2)cc1 [Example 415, (6R)-6-[(2-{4-[(propan-2-yl)oxy]phenyl}[1,2,4]triazolo[1,5-c]quinazolin-5-yl)amino]-1,4-diazepan-5-one] |
